Results from patent publication US7767659B2, “Synthesis of naturally occurring ecteinascidins and related compounds” (Pharma Mar, S.A., priority 2002, dated 2010).
Read-outs that look alike come from different tables or passages of the source.

Columns and labels:
[1] = system: LoVo; test: cells; conditions: Homo sapiens, LoVo, 48 h
In short: (§1)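 Colorimetric SRB read (490 nm) on triplicate wells after 48 h at 37 °C, 5% CO2. Dose range 10 to 10^−8 μg/ml; 5×10^3 cells/well pre-attached 18 h.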

[2] = system: HT-29; test: cells; conditions: Homo sapiens, HT-29, 48 h
In short: as §1

[3] = system: A-549; test: cells; conditions: Homo sapiens, A549, 48 h
In short: as §1

[4] = system: PANC-1; test: Inhibition of cells growth by colorimetric assay (SRB); conditions: Homo sapiens, PANC-1, 48 h
In short: as §1

[5] = system: SK-MEL-28; test: as above; conditions: Homo sapiens, SK-MEL-28, 48 h
In short: as §1

[6] = system: IGROV-1; test: as above; conditions: Homo sapiens, IGROV-1, 48 h
In short: as §1

[7] = system: DU-145; test: as above; conditions: Homo sapiens, DU-145, 48 h
In short: as §1

[8] = system: IGROV-ET; test: as above; conditions: Homo sapiens, 48 h
In short: as §1

[9] = system: LoVo-Dox; test: as above; conditions: Homo sapiens, 48 h
In short: as §1

[10] = system: HeLa-APL; test: as above; conditions: Homo sapiens, 48 h
In short: as §1

[11] = system: K-562; test: as above; conditions: Homo sapiens, K562, 48 h
In short: as §1

[12] = system: LNCaP; test: as above; conditions: Homo sapiens, LNCaP, 48 h
In short: as §1

[13] = system: SK-BR-3; test: as above; conditions: Homo sapiens, SK-BR-3, 48 h
In short: as §1

[14] = system: HeLa; test: as above; conditions: Homo sapiens, HeLa, 48 h
In short: as §1

`C=CCN1[C@@H]2c3c(cc(C)c(OC)c3OC(=O)/C=C/c3ccccc3)C[C@H]1[C@H](C#N)N1C2[C@@H]2SCC(NC(=O)C(F)(F)F)C(=O)OC[C@H]1c1c3c(c(C)c(OC(C)=O)c12)OCO3` (some centres unmarked) [compound 29] gave a GI50 ([1]; read-out: GI50 LOVO) of 2.85 µM, a CC50 ([1]; read-out: LC50 LOVO) of 11.4 µM and an IC (TGI) ([1]; read-out: TGI LOVO) of 11.4 µM. It also gave a GI50 ([2]; read-out: GI50 HT29) of 11.4 µM, a CC50 ([2]; read-out: LC50 HT29) of 11.4 µM and an IC (TGI) ([2]; read-out: TGI HT29) of 11.4 µM. It also gave a GI50 ([3]; read-out: GI50 A549) of 4.8 µM, a CC50 ([3]; read-out: LC50 A549) of 11.4 µM and an IC (TGI) ([3]; read-out: TGI A549) of 11.4 µM. For the same molecule, the GI50 ([4]; read-out: GI50 PANC-1) was 6.55 µM, the CC50 ([4]; read-out: LC50 PANC-1) was 11.4 µM and the IC (TGI) ([4]; read-out: TGI PANC-1) was 11.4 µM. The GI50 ([5]; read-out: GI50 MEL-28) was 3.74 µM, the CC50 ([5]; read-out: LC50 MEL-28) was 11.4 µM and the IC (TGI) ([5]; read-out: TGI MEL-28) was 11.4 µM. For the same molecule, the GI50 ([6]; read-out: GI50 IGROV) was 2.19 µM, the CC50 ([6]; read-out: LC50 IGROV) was 11.4 µM and the IC (TGI) ([6]; read-out: TGI IGROV) was 11.4 µM. It also gave a GI50 ([7]; read-out: GI50 DU145) of 2.3 µM, a CC50 ([7]; read-out: LC50 DU145) of 11.4 µM and an IC (TGI) ([7]; read-out: TGI DU145) of 7.93 µM. For the same molecule, the GI50 ([8]; read-out: GI50 IGROV-ET) was 3.12 µM, the CC50 ([8]; read-out: LC50 IGROV-ET) was 11.4 µM and the IC (TGI) ([8]; read-out: TGI IGROV-ET) was 11.4 µM. It also gave a GI50 ([9]; read-out: GI50 LOVO-DOX) of 4.09 µM, a CC50 ([9]; read-out: LC50 LOVO-DOX) of 11.4 µM and an IC (TGI) ([9]; read-out: TGI LOVO-DOX) of 11.4 µM. For the same molecule, the GI50 ([10]; read-out: GI50 HELA-APL) was 4.29 µM, the CC50 ([10]; read-out: LC50 HELA-APL) was 11.4 µM and the GI50 ([11]; read-out: GI50 K562) was 0.629 µM. For the same molecule, the CC50 ([11]; read-out: LC50 K562) was 11.4 µM, the IC (TGI) ([11]; read-out: TGI K562) was 3.9 µM and the GI50 ([12]; read-out: GI50 LNCAP) was 0.878 µM. It also gave a CC50 ([12]; read-out: LC50 LNCAP) of 11.4 µM, an IC (TGI) ([12]; read-out: TGI LNCAP) of 6.07 µM and a GI50 ([13]; read-out: GI50 SK-BR3) of 0.889 µM. The CC50 ([13]; read-out: LC50 SK-BR3) was 11.4 µM, the IC (TGI) ([13]; read-out: TGI SK-BR3) was 7.98 µM and the GI50 ([14]; read-out: GI50 HELA) was 6.3 µM. It also gave a CC50 ([14]; read-out: LC50 HELA) of 11.4 µM and an IC (TGI) ([14]; read-out: TGI HELA) of 11.4 µM.

`C=CCN1[C@@H]2c3c(cc(C)c(OC)c3O)C[C@H]1[C@H](C#N)N1C2[C@@H]2SC[C@]3(NCCc4cc(O)c(OC)cc43)C(=O)OC[C@H]1c1c3c(c(C)c(OC(=O)/C=C/c4ccccc4)c12)OCO3` (some centres unmarked) [compound 49] was tested, and the GI50 ([1]; read-out: LOVO GI50) was 0.25 µM, the CC50 ([1]; read-out: LOVO LC50) was 0.89 µM and the IC (TGI) ([1]; read-out: LOVO TGI) was 0.471 µM. It also gave a GI50 ([2]; read-out: HT29 GI50) of 0.194 µM, a CC50 ([2]; read-out: HT29 LC50) of 11.3 µM and an IC (TGI) ([2]; read-out: HT29 TGI) of 0.588 µM. It also gave a GI50 ([3]; read-out: A549 GI50) of 0.184 µM, a CC50 ([3]; read-out: A549 LC50) of 1.01 µM and an IC (TGI) ([3]; read-out: A549 TGI) of 0.431 µM. For the same molecule, the GI50 ([4]; read-out: PANC-1 GI50) was 0.179 µM, the CC50 ([4]; read-out: PANC-1 LC50) was 3.92 µM and the IC (TGI) ([4]; read-out: PANC-1 TGI) was 0.564 µM. The GI50 ([5]; read-out: MEL-28 GI50) was 0.181 µM, the CC50 ([5]; read-out: MEL-28 LC50) was 0.701 µM and the IC (TGI) ([5]; read-out: MEL-28 TGI) was 0.356 µM. It also gave a GI50 ([6]; read-out: IGROV GI50) of 0.165 µM, a CC50 ([6]; read-out: IGROV LC50) of 1.13 µM and an IC (TGI) ([6]; read-out: IGROV TGI) of 0.432 µM. It also gave a GI50 ([7]; read-out: DU145 GI50) of 0.107 µM, a CC50 ([7]; read-out: DU145 LC50) of 11.3 µM and an IC (TGI) ([7]; read-out: DU145 TGI) of 1.25 µM. It also gave a GI50 ([8]; read-out: IGROV-ET GI50) of 0.28 µM, a CC50 ([8]; read-out: IGROV-ET LC50) of 11.3 µM and an IC (TGI) ([8]; read-out: IGROV-ET TGI) of 0.616 µM. The GI50 ([9]; read-out: LOVO-DOX GI50) was 0.672 µM, the CC50 ([9]; read-out: LOVO-DOX LC50) was 11.3 µM and the IC (TGI) ([9]; read-out: LOVO-DOX TGI) was 11.3 µM. For the same molecule, the GI50 ([10]; read-out: HELA-APL GI50) was 0.182 µM, the CC50 ([10]; read-out: HELA-APL LC50) was 0.701 µM and the IC (TGI) ([10]; read-out: HELA-APL TGI) was 0.357 µM. For the same molecule, the GI50 ([11]; read-out: K562 GI50) was 0.0377 µM, the CC50 ([11]; read-out: K562 LC50) was 5.1 µM and the IC (TGI) ([11]; read-out: K562 TGI) was 0.311 µM. The GI50 ([12]; read-out: LNCAP GI50) was 0.0405 µM, the CC50 ([12]; read-out: LNCAP LC50) was 0.442 µM and the IC (TGI) ([12]; read-out: LNCAP TGI) was 0.175 µM. It also gave a GI50 ([13]; read-out: SK-BR3 GI50) of 0.0496 µM, a CC50 ([13]; read-out: SK-BR3 LC50) of 11.3 µM and an IC (TGI) ([13]; read-out: SK-BR3 TGI) of 1.86 µM. The GI50 ([14]; read-out: HELA GI50) was 0.189 µM, the CC50 ([14]; read-out: HELA LC50) was 0.929 µM and the IC (TGI) ([14]; read-out: HELA TGI) was 0.418 µM.
